Source: ChEMBL document CHEMBL4622874, “Discovery of ORN0829, a potent dual orexin 1/2 receptor antagonist for the treatment of insomnia” (Bioorg Med Chem, 2020)

How the values were obtained:
[1] = molecular target: T1, Orexin/Hypocretin receptor type 1 (Homo sapiens, UniProt O43613); experiment: Antagonist activity at human recombinant OX1R expressed in CHOK1 cells assessed as inhibition of orexin A-induced intracellular Ca2+ release preincubated for 30 mins followed by orexin-A stimulation by Fluo4-AM dye based fluorescence analysis; assay type: functional, cell-based, CHO-K1
T1 sequence (O43613 whole entry): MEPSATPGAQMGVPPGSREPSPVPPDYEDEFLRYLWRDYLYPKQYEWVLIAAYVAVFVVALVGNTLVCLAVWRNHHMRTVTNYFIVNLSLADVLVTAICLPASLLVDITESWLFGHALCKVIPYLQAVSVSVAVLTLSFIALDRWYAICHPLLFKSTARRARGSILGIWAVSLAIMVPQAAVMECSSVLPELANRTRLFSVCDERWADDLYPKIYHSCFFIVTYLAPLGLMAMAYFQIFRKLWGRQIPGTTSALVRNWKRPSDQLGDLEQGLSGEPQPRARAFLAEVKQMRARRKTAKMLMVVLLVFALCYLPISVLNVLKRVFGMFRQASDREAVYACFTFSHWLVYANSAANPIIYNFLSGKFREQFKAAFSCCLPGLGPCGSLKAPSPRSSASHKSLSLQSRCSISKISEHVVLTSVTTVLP

Orexin receptor type 2 = molecular target: T2, Orexin receptor type 2 (Homo sapiens, UniProt O43614); experiment: Antagonist activity at human recombinant OX2R expressed in CHOK1 cells assessed as inhibition of orexin A-induced intracellular Ca2+ release preincubated for 30 mins followed by orexin-A stimulation by Fluo-4AM dye based fluorescence analysis; assay type: functional, cell-based, CHO-K1
T2 sequence (O43614 whole entry): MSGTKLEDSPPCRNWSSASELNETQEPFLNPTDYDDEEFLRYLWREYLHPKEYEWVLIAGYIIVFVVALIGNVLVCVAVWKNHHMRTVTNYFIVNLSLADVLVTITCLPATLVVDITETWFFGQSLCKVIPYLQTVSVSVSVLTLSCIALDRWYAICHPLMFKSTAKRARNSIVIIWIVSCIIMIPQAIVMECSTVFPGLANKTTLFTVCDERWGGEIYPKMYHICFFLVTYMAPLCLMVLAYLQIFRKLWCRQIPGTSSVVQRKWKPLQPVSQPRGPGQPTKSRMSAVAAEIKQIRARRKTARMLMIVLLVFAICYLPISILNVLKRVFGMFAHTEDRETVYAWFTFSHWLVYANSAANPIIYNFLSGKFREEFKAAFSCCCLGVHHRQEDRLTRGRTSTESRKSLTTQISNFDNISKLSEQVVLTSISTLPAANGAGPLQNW

[2] = Lipophilicity, log D of the compound at pH 7.4 by HPLC analysis; assay type: physicochemical; details: buffer
[3] = Drug metabolism in human liver microsomes incubated for 15 mins; assay type: ADME, Microsome; details: read-out: Drug metabolism
P-gp (ABCB1) = P-gp (ABCB1) (Homo sapiens, UniProt P08183); experiment: Substrate activity at P-gp (unknown origin) assessed as efflux ratio; assay type: ADME; details: not told
P-gp (ABCB1), sequence (P08183 whole entry): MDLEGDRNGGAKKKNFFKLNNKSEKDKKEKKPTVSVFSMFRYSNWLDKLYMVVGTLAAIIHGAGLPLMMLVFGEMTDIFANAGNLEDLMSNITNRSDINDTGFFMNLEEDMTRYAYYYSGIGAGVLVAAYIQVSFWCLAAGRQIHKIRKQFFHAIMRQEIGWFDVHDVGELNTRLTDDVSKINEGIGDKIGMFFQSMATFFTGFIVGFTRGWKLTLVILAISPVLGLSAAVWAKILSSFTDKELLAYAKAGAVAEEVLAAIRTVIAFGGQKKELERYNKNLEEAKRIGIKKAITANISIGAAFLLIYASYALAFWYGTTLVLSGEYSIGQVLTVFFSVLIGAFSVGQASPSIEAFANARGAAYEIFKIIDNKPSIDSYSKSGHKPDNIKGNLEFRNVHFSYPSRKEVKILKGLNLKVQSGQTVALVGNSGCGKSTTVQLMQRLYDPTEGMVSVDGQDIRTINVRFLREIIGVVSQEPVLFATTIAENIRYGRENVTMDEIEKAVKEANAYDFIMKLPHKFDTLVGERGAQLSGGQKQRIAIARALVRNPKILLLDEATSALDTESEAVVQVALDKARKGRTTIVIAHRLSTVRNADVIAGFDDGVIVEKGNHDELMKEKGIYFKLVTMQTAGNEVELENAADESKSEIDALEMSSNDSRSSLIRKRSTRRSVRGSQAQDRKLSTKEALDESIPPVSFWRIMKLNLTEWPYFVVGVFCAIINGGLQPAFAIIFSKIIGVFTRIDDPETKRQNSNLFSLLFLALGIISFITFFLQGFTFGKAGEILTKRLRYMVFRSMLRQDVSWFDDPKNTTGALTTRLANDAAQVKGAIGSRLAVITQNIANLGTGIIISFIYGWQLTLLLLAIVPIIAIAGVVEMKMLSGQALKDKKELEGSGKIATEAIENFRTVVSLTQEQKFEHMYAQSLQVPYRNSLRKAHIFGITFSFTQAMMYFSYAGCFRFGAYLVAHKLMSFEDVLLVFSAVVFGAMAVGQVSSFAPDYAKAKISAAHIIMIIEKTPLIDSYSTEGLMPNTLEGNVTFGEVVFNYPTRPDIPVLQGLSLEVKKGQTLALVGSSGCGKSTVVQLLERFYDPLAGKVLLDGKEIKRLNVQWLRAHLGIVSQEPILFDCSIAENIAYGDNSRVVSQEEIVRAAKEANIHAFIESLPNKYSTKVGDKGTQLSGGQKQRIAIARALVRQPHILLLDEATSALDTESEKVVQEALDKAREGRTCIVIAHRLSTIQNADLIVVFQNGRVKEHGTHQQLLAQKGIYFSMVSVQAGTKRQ

Cytochrome P450 3A4 = Cytochrome P450 3A4 (Homo sapiens, UniProt P08684); experiment: Time dependent inhibition of CYP3A4 (unknown origin); assay type: ADME
Cytochrome P450 3A4, sequence (P08684 whole entry): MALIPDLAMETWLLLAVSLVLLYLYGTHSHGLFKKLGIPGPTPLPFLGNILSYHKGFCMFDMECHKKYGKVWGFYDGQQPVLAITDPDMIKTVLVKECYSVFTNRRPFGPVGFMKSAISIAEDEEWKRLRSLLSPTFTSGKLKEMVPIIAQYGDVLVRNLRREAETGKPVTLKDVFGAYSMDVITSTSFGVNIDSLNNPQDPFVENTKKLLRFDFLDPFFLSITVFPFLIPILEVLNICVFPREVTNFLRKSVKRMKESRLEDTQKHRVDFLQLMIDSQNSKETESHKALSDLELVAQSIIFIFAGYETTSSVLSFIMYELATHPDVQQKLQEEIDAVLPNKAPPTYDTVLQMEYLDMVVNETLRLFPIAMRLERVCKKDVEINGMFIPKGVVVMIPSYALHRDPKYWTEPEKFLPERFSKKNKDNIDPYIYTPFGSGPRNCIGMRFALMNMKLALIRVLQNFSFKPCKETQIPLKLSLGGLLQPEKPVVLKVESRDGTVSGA

[4] = molecular target: Voltage-gated inwardly rectifying potassium channel KCNH2 (Homo sapiens, UniProt Q12809); experiment: Inhibition of human ERG
Voltage-gated inwardly rectifying potassium channel KCNH2, sequence (Q12809 whole entry): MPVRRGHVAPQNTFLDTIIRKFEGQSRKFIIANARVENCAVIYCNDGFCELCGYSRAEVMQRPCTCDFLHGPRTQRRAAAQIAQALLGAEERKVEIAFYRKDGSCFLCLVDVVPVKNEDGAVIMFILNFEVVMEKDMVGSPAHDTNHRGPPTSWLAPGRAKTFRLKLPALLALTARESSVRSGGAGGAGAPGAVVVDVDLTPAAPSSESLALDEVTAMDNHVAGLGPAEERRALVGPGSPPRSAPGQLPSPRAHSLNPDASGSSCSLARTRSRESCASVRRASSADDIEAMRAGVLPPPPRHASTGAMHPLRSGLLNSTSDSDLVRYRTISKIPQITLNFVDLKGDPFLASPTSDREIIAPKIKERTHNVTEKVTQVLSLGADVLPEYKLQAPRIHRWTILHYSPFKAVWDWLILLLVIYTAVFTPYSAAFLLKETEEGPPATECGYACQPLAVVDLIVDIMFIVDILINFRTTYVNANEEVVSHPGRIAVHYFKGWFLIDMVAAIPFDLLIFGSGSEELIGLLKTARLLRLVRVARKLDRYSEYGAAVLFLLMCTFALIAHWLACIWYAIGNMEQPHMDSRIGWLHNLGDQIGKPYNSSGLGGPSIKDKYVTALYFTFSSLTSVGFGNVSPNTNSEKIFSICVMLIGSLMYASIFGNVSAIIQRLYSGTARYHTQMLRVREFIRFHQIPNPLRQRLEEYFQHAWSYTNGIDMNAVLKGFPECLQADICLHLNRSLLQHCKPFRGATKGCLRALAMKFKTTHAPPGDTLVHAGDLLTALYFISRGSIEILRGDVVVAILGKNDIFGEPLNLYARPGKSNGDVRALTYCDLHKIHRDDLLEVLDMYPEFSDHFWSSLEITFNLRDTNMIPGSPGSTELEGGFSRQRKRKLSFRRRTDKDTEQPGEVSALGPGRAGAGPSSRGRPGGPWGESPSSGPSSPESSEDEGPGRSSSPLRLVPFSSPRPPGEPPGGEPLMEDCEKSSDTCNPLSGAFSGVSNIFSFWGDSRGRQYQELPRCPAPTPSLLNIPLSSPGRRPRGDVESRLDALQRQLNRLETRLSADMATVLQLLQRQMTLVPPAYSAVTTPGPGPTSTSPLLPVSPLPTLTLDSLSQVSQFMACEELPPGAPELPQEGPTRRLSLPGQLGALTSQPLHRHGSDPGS

Row | Compound | IC50 [1] | IC50 (Orexin receptor type 2) | logD [2] | metabolised at 0.25 h [3] | efflux ratio (P-gp (ABCB1)) | inhibition (INH) (Cytochrome P450 3A4) | inhibition (INH) [4]
1 | Cc1ccc(-n2nccn2)c(C(=O)N2COC[C@H]2Cn2ccc(-c3ccc(F)cn3)n2)c1 | 149 nM | 133 nM | 2.52 | 18% | 1.65 | – | –
2 | CCN(CCn1ccc(-c2ccc(F)cn2)n1)C(=O)c1cc(C)ccc1-n1nccn1 | – | – | 2.78 | 20.2% | 1.51 | – | –
3 | Cc1ccc(-n2nccn2)c(C(=O)N2CCCO[C@H]2Cc2noc(-c3ccc(F)cn3)n2)c1 | 4.54 nM | 3.6 nM | 2.53 | 19.5% | 3.06 | – | –
4 | Cc1ccc(-n2nccn2)c(C(=O)N2CCO[C@H]2Cn2ccc(-c3ccc(F)cn3)n2)c1 | 8.08 nM | – | 2.67 | 15.7% | – | – | –
5 | Cc1ccc(-n2nccn2)c(C(=O)N2CCCO[C@H]2Cn2ncc(-c3ccc(F)cn3)n2)c1 | 2.9 nM | 1.88 nM | 2.8 | 16.4% | 1.38 | – | –
6 | Cc1ccc(-n2nccn2)c(C(=O)N2CCC[C@H]2Cn2ccc(-c3ccc(F)cn3)n2)c1 | 3.3 nM | 3.15 nM | 3.08 | 37.2% | 1.96 | – | –
7 | Cc1ccc(-n2nccn2)c(C(=O)N2CSC[C@H]2Cn2ccc(-c3ccc(F)cn3)n2)c1 | 4.6 nM | 13.1 nM | 3.08 | 73.7% | 1.13 | – | –
8 | Cc1ccc(-n2nccn2)c(C(=O)N2CCCC[C@@H]2Cn2ccc(-c3ccc(F)cn3)n2)c1 | 20.8 nM | 52.4 nM | 2.95 | – | – | – | –
9 | O=C(c1cc(F)ccc1-n1nccn1)N1CCCO[C@H]1Cn1ccc(-c2ccc(F)cn2)n1 | 3.95 nM | 1.96 nM | 2.46 | 43.2% | 2.64 | – | –
10 | Cc1ccc(-n2nccn2)c(C(=O)N2CCCO[C@H]2Cn2ncn(-c3ccc(F)cn3)c2=O)c1 | 85.5 nM | 5.4 nM | 2.52 | 15.6% | 2.88 | – | –
11 | Cc1ccc(-n2nccn2)c(C(=O)N2CCCO[C@H]2Cn2cc(-c3ccc(F)cn3)nn2)c1 | 12.1 nM | 3.07 nM | 2.38 | 4.3% | 4.97 | – | –
12 | Cc1ccc(-n2nccn2)c(C(=O)N2CCCO[C@H]2Cc2cnn(-c3ccc(F)cn3)c2)c1 | 3.98 nM | – | 3.03 | 29.7% | – | – | –
13 | Cc1ccc(-n2nccn2)c(C(=O)N2CCCO[C@@H]2Cn2ccc(-c3ccc(F)cn3)n2)c1 | 344 nM | 274 nM | 2.56 | – | – | – | –

Now from value to compound, other results behind:

Row | IC50 [1] | IC50 (Orexin receptor type 2) | logD [2] | metabolised at 0.25 h [3] | efflux ratio (P-gp (ABCB1)) | inhibition (INH) (Cytochrome P450 3A4) | Compound | inhibition (INH) [4]
14 | 363 nM | 313 nM | 3.06 | – | – | – | Cc1ccc(-n2nccn2)c(C(=O)N2CCC[C@@H]2Cn2ccc(-c3ccc(F)cn3)n2)c1 | –
15 | 3.22 nM | 4.58 nM | 2.3 | 28.9% | 5.36 | – | O=C(c1cc(F)ccc1-c1ncccn1)N1CCCO[C@H]1Cn1ccc(-c2ccc(F)cn2)n1 | –
16 | 2690 nM | – | 2.68 | – | – | – | Cc1ccc(-n2nccn2)c(C(=O)N2CCO[C@@H]2Cn2ccc(-c3ccc(F)cn3)n2)c1 | –
17 | 61.1 nM | 2300 nM | 3.51 | 53% | 1.34 | – | Cc1ccc(-n2nccn2)c(C(=O)N2CCS[C@H]2Cn2ccc(-c3ccc(F)cn3)n2)c1 | –
18 | 2.21 nM | – | 3.15 | 24.8% | – | Active | Cc1ccc(-n2nccn2)c(C(=O)N2CCCO[C@H]2Cn2cc(-c3ccc(F)cc3)cn2)c1 | Active
19 | 2.27 nM | 1.64 nM | 2.96 | 51.9% | 1.63 | – | Cc1ccc(-n2nccn2)c(C(=O)N2CCCC[C@H]2Cn2ccc(-c3ccc(F)cn3)n2)c1 | –
20 | 3.5 nM | 15 nM | 2.33 | 24.5% | 3.56 | – | Cc1ccc(-n2nccn2)c(C(=O)N2CCOC[C@H]2Cn2ccc(-c3ccc(F)cn3)n2)c1 | –
21 | 3.29 nM | 3.18 nM | 2.36 | 26.3% | 6.74 | – | Cc1ccc(-c2ncccn2)c(C(=O)N2CCCO[C@H]2Cn2ccc(-c3ccc(F)cn3)n2)c1 | –
22 | 5.39 nM | – | 2.38 | 15.8% | – | – | Cc1ccc(-n2nccn2)c(C(=O)N2CCCO[C@H]2Cn2cc(-c3ccc(F)cn3)cn2)c1 | –
23 | 3.76 nM | 2.62 nM | 2.3 | 14.6% | 3.25 | – | O=C(c1ccccc1-n1nccn1)N1CCCO[C@H]1Cn1ccc(-c2ccc(F)cn2)n1 | –
24 | 3.36 nM | 3.41 nM | 2.39 | 24.1% | 3.08 | – | Cc1ccc(-n2nccn2)c(C(=O)N2COCC[C@H]2Cn2ccc(-c3ccc(F)cn3)n2)c1 | –
